According to US12195413B2, “Ethynyl derivatives” (Hoffmann-La Roche Inc., priority 2015, dated 2025):

Test: rat Vogel conflict drinking test
Type: in vivo

CN1C(=O)N(c2ccc(C#Cc3ccccc3)cn2)[C@@H]2CC[C@@H]21 [Example 1, (−)-(1S,5R)-2-methyl-4-(5-(phenylethynyl)pyridin-2-yl)-2,4-diazabicyclo[3.2.0]heptan-3-one]
anxiolytic activity, minimal effective dose: 0.1 mg/kg
